Tests used:
[1] = tested on: B16D2 melanoma cells; assay: MTS cell viability assay, B16D2; assay type: cell-based; conditions: B16D2, 24 h, read-out: IC50 (concentration reducing number of viable cells by 50%)
Protocol: Cells were cultured at indicated densities for 24 h, medium was removed and the incubation was continued in a fresh culture medium containing various GC2 or DTIC concentrations. In control experiments, cells were grown in a culture medium containing GC2 buffer.
The standard […] (MTS)-3-(4,5-dimethylthiazol-2-yl)-5-(3-carboxymethoxyphenyl)-2-(4-sulphophenyl)-2H-tetrazolium inner salt solution assay was performed in order to examine the cytotoxic/cytostatic effect of GC2 on melanoma cells. Briefly, 7.5×10^3 cells were seeded in 96-well microtiter plates (Nunc). After an overnight incubation, serial dilutions of GC2 or DTIC were added in triplicate to a final volume of 100 μl. The blank was represented by a culture medium without cells containing the highest GC2 or DTIC concentration. After 24 h of incubation 20 μl MTS was added to each well and all samples were incubated for 3 h at 37° C. An absorbance of each well was read at 450 nm in a microplate reader. A percentage of cell viability was calculated considering that 100% cell viability was represented by an absorbance of untreated samples […]. Alternatively, the number of viable cells was determined by Trypan blue exclusion test. Melanoma cells treated with GC2 were trypsinized and cells negative for blue staining (viable cells) were counted using a hemocytometer. […]

[2] = tested on: actin network in SKMel28 and MelJuSo cells; assay: Actin staining with Alexa Fluor 594 phalloidin, fluorescence microscopy; assay type: cell-based; conditions: 6 μM, 3 h
Protocol: (§1) Tumor cells were cultured 24 h on cover glasses, treated with GC2, and processed as described in Negroiu, G., et al. J. Biol. Chem. 278, 27035-27042, 2003. The acidic vesicular compartments were detected following incubation of live cells GC2 treated with Lysotracker® Red (0.125 μl/ml culture medium) for 30 min at 37° C. Fixed cells were incubated with the following primary antibodies: mouse anti-EEA1 (1:100), human-CD107A (anti-Lamp1) (1:50), a mouse anti-α tubulin (1:200) followed by an appropriate Alexa Fluor® 488 conjugated secondary antibodies (1:400) or with Alexa Fluor® 594 phalloidin. Finally, nuclei of fixed cells were stained with 5 mM Hoechst dye 33342. Cells were washed three times with PBS and mounted in Vectashield® mounting medium.
Whether tumor cell compartments and cytoskeletal elements are altered by GC2 treatment was analysed utilizing molecular markers for two main cell compartments: 1) EEA1 for early endosomes, which are accessed first by all endocytosed molecules and 2) Lamp-1 for lysosomes, the major degradative compartment. Actin filaments were labeled with Alexa Fluor® 594 phalloidin and microtubules with an anti-α-tubulin antibody; all samples were analyzed by fluorescence microscopy. […] Following GC2 treatment both endocytic markers were redistributed in large substructures detected also by phase contrast microscopy. […]

[3] = tested on: MelJuSo cells; assay: Cell cycle distribution analysis (PI, flow cytometry), MelJuSo; assay type: cell-based, human; conditions: 6 μM, 24 h
Protocol: Cell cycle analysis in melanoma cells treated with GC2 was performed by determining DNA content using propidium iodide (PI) staining. PI intercalates into the major groove of double stranded DNA and produces a highly fluorescent adduct that can be excited at 488 nm and with a broad emission centered at 600 nm, see e.g. Krishan A. J. Cell. Biol. 66, 188, 1975. Melanoma cells (20×10^4) were cultured in 25 cm^2 tissue culture flasks for 24 h, followed by a further incubation for indicated time periods with 6 μM GC2. After treatment, adherent cells were trypsinized and a number of viable cells was determined by trypan blue exclusion. […] cells were re-suspended in 200 μl FACS buffer (2% FCS in PBS) and fixed with 600 μl absolute methanol, dropwise added under gentle vortexing, for at least 2 h at −20° C. Fixed cells were washed with FACS buffer, centrifuged for 5 min at 1500 rpm, at 4° C., and incubated for 30 min, in the dark, at room temperature (RT) with 200 μl PI staining solution in 3.8 mM sodium citrate (10 μl RNaze 10 μg/ml previously boiled for 5 min and 1 μl PI 10 mg/ml). The staining solution was removed by centrifugation and the cell pellet was re-suspended in 200 μl FACS buffer. Samples were analyzed for DNA content using a FACScan™ using CellQuest™ software (Becton Dickinson, San Jose, Calif.). […]

[4] = tested on: SKMel28 cells; assay: Acidic vesicular organelles, Lysotracker Red vital staining; assay type: cell-based; conditions: SKMel28, 6 μM, 3 h and 8 h
Protocol: as §1
Acidic compartments of untreated and GC2-treated tumor cells were differentiated using a lysosomotropic agent LysoTracker® Red (LT), a marker for tracking acidic organelles in live cells. These probes can be used to investigate the acidification of lysosomes and alteration of their function or trafficking that occur in the cell. In untreated SKMel28 cells (FIG. 5Aa) the LT probe has a moderate fluorescence as fine punctate structures distributed within the entire cell cytoplasm and occasionally at the cell periphery.

For `CC(=O)O.CCCCCCCCCN1[C@@H](CO)[C@@H](O)[C@H](O)[C@@H]1CCCCCCCC` [GC2, (2S,3R,4R,5S)-3,4-dihydroxy-N-nonyl-5-octyl-2 hydroxymethylpyrrolidinium acetate], the IC50 [1] was 11 µM, the “pattern of the fluorescent actin marker” value [2] was “disrupted” and the “number of cells in G2 phase” value ([3]; untreated 17.7%) was 8.48%. The “proportion of surviving cells in G0/G1 phase” value ([3]; untreated 51.20%) was 60.00% and the “Lysotracker Red probe distribution (acidic vesicles)” value [4] was “accumulates in large, bright red fluorescent vesicles in a time dependent manner”.
